The values below are quoted from earlier work in patent US20150223465A1, “COMPOSITION CONTAINING 3-CYCLOPROPYL-1-ENYL-PROPANOIC ACID SALTS AND A CARRIER” (Yissum Research Development Company of the Hebrew …, priority 2012, published 2015).

One data set has as its system cut flowers. Conditions: cited from earlier work.
For data set [1], the system named is cut mini carnation flowers. Conditions: cited from earlier work; for inhibition of the action of ethylene: applied as aqueous solutions to cut mini carnation flowers; for activity as plant ethylene antagonist: in a vapor phase.

Regarding `O=C([O-])O.[Na+]` [NaHCO3, sodium bicarbonate], the “effect on fresh weight of cut flowers during vase life” value in the data set with cut flowers (about 1.5 mM NaHCO3 combined with CuSO4) is “positively affected”. In addition, in the data set on cut flowers (in vase water of cut flowers), the “effect on hydraulic stem resistance or transpiration rate” value was “no effect”.
On to `O=C(O)CCC1=CC1` [3-cycloprop-1-en-1-ylpropanoic acid], for which, in data set [1], the “inhibition of the action of ethylene” value is listed as “did not inhibit” and the “activity as plant ethylene antagonist” value is listed as “active”.
As to `CC(C)N.O=C(O)CCC1=CC1` [propan-2-aminium 3-cycloprop-1-en-1-ylpropanoate], the “inhibition of the action of ethylene” value in data set [1] is “some ethylene sensitivity but the test results were variable”.
Turning to `CC1=CC1C(=O)O` (stereo not drawn) [2-methylcycloprop-2-ene-1-carboxylic acid], in data set [1], the “inhibition of the action of ethylene” value is on record as “did not inhibit” and the “activity as plant ethylene antagonist” value was “active”.
Take `O=C(O)C1C=C1` [cycloprop-2-ene-1-carboxylic acid]: in data set [1], the “inhibition of the action of ethylene” value was “did not inhibit” and the “activity as plant ethylene antagonist” value is reported as “active”.
